EP2340832A1, “Morphinan-6-one compounds for the treatment or prevention of neurodegenerative diseases” (Universität Innsbruck, priority 2009, dated 2011)
Read-outs that look alike come from different tables or passages of the source.

Assays:
k opioid receptors = biological target: T1, k opioid receptors (Cavia porcellus, UniProt P41144); test: Opioid receptor binding assay, [3H]U69,593, guinea pig brain membranes
T1 construct: Membrane fractions were prepared from Sprague-Dawley rat or guinea pig brains; from tissue; host or cells: guinea pig brain (without cerebella) membranes
Protocol: (§1) Briefly, brains without cerebella were homogenised on ice in 5 volumes of ice-cold 50 mM Tris-HCI buffer (pH 7.4) and diluted in 30 volumes of the same buffer. After centrifugation at 40,000 x g for 20 min at 4°C, the pellets were resuspended in 30 volumes of Tris-HCI buffer and incubated at 37 °C for 30 min (rat brain) or for 10 min (guinea pig brain). The centrifugation step was repeated and the final pellets were resuspended in 5 volumes of 50 mM Tris-HCI buffer (pH 7.4) containing 0.32 M sucrose to give a protein concentration of 4 - 6 mg/ml. Protein concentration was determined by the method of Bradford using bovine serum albumin as standard.
(§2) Binding experiments were performed in 50 mM Tris-HCI buffer (pH 7.4) in a final volume of 1 ml containing 0.3 - 0.5 mg protein and different concentrations of the compounds. […] Guinea pig brain membranes were incubated with [^3H]U69,593 (30 min, 30 °C). Non-specific binding was determined in the presence of 10 µM unlabeled naloxone. […] Inhibition constant (Ki) values were calculated from competition binding curves using GraphPad Prism (San Diego, CA, USA) program. The values are expressed as the mean ± S.E.M of 2-4 independent experiments, each performed in duplicate.
(§3) The morphinan-6-one compounds of the present invention were evaluated in in vitro receptor binding assays for their interaction abilities with µ, δ and k opioid receptors. […] The affinities of the compounds at k opioid receptors were determined by displacement of [^3H]U69,593 using guinea pig brain membranes.

C57BL/6N female mice = test: Object recognition task; details: for object recognition (memory): normal mice; for effect on scopolamine-induced impairment of object recognition: scopolamine-pretreated mice
[1] = biological target: σ receptors labelled by [^3H]DTG (σ1 + σ2); test: Sigma receptor binding assay, [3H]DTG; details: read-out: IC50 ± SEM [^3H]DTG (σ1 + σ2); guinea pig brain membranes; compounds 1-5 tested up to 10 µM
Protocol: (§4) Filters were washed three times with 5 ml of ice-cold 10 mM Tris-HCI buffer (pH 8). The bound radioactivity was measured by liquid scintillation counting (Beckman Coulter™ LS6500). […] The values are expressed as the mean ± S.E.M of 2 - 4 independent experiments, each performed in duplicate.

δ receptor = biological target: T2, δ receptor (Rattus norvegicus, UniProt P33533); test: [35S]GTPγS functional assay, rat brain membranes, δ receptor; format: biochemical, Sprague-Dawley rat
T2 construct: Membrane fractions were prepared from Sprague-Dawley rat or guinea pig brains; from tissue; host or cells: Sprague-Dawley rat brain (without cerebella) membranes
Protocol: (§5) Membrane fractions were prepared from Sprague-Dawley rat or guinea pig brains as described above. To determine binding of [^35S]GTPyS, rat or guinea pig brain membranes (10 µg of protein) were incubated for 60 min at 30 °C in Tris-EGTA buffer (50 mM Tris-HCl buffer, 3 mM MgCl2, 1 mM EGTA, […], pH 7.4) containing 30 µM GDP, 0.05 nM [^35S]GTPyS and appropriate concentrations of the respective compounds according to the present invention in a final volume of 1 ml. The reaction was terminated by vacuum filtration through Whatman GF/B glass fibre filters. Filters were washed three times with ice-cold 50 mM Tris-HCI buffer (pH 7.4) and the bound radioactivity was measured by liquid scintillation counting (Beckman Coulter™ LS6500). Basal activity was determined by subtracting the non-specific binding (measured in the presence of 100 µM unlabelled GTPyS) from the total binding (measured in the absence of the compound).
(§6) Stimulation produced by the compound is given as percentage of the basal activity (given as 100%). Functional data, EC50 (nM; half maximal effective concentration) and maximal stimulation Emax (% stimulation over basal level; maximal effective concentration), were calculated by using nonlinear regression analysis and sigmoidal curve fitting GraphPad Prism (San Diego, CA, USA) program. The values are expressed as the mean ± S.E.M of at least 3 independent experiments, each performed in triplicate. Statistical analysis was carried out using SPSS software (SPSS Inc., Chicago, lL, USA) and the Student T-test was used to compare different assay conditions. A ρ value < 0.05 was considered statistically significant.

[2] = biological target: T3, σ receptors labelled by [^3H](+)-pentazocine (σ1) (Cavia porcellus, UniProt Q60492); test: Sigma receptor binding assay, [3H](+)-pentazocine; design: species or system guinea pig
T3 construct: from tissue; host or cells: guinea pig brain membranes
Protocol: as §4

µ opioid receptor = µ opioid receptor (Rattus norvegicus, UniProt P33535); test: [35S]GTPγS functional assay, rat brain membranes, µ receptor; format: biochemical, Sprague-Dawley rat; design: Membrane fractions were prepared from Sprague-Dawley rat or guinea pig brains; from tissue; host or cells: Sprague-Dawley rat brain (without cerebella) membranes
Protocol: as §5, §6

K receptor = biological target: T4, K receptor (Cavia porcellus, UniProt P41144); format: biochemical, guinea pig
T4 construct: Membrane fractions were prepared from Sprague-Dawley rat or guinea pig brains; from tissue; host or cells: guinea pig brain (without cerebella) membranes

δ opioid receptors = biological target: T5, δ opioid receptors (Rattus norvegicus, UniProt P33533); test: Opioid receptor binding assay, [3H][Ile5,6]deltorphin II, rat brain membranes; design: species or system Sprague-Dawley rat
T5 construct: Membrane fractions were prepared from Sprague-Dawley rat or guinea pig brains; from tissue; host or cells: Sprague-Dawley rat brain (without cerebella) membranes
Protocol: as §1, §2, §3

Sequence of µ opioid receptor (P33535 whole entry): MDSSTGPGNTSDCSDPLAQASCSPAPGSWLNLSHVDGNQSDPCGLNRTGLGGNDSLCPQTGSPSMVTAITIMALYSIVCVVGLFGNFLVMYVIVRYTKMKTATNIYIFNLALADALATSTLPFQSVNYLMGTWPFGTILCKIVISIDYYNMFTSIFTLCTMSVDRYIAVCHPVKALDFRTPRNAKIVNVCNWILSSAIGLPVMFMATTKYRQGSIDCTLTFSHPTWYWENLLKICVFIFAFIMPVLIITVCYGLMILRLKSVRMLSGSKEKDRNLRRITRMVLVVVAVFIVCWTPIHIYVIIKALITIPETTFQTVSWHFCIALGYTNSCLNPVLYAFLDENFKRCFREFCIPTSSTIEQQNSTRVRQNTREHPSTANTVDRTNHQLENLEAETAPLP
T5 sequence (P33533 whole entry): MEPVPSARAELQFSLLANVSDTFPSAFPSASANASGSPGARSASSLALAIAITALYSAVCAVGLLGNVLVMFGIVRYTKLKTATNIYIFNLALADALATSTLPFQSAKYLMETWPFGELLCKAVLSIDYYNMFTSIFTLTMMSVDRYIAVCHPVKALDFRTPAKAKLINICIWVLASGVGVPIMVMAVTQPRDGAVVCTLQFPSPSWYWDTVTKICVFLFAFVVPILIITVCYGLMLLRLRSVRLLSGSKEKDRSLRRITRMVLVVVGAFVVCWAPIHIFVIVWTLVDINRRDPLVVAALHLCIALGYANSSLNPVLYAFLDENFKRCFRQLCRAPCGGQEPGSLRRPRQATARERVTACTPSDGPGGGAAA
T1 sequence (P41144 whole entry): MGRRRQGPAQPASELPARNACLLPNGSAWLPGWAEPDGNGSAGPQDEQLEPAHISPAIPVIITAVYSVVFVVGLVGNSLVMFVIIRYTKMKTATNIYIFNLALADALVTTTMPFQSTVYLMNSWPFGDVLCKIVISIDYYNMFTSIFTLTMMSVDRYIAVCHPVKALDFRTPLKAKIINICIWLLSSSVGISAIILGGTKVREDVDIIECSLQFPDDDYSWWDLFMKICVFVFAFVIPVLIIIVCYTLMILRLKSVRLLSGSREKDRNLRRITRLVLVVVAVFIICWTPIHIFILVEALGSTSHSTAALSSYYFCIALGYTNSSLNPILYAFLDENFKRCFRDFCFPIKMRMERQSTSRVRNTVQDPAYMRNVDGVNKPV
T4 sequence (P41144 whole entry): as above
T3 sequence (Q60492 whole entry): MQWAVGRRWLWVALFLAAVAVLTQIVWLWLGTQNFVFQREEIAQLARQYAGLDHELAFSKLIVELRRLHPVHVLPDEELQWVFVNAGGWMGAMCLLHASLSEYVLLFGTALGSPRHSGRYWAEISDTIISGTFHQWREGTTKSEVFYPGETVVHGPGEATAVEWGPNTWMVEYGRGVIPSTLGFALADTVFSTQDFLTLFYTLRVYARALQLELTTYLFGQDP
T2 sequence (P33533 whole entry): as the sequence (P33533 whole entry) above

`C=CCN1CC[C@]23CC(=O)CC[C@H]2[C@H]1Cc1cccc(OC)c13` [Compound 4, 4-methoxy-N-allylmorphinan-6-one] was tested, and the Ki (k opioid receptors) was 0.0331 µM, the “object recognition (memory)” value (C57BL/6N female mice; 0.05 µmol i.c.v.) was “small impairment of memory” and the “effect on scopolamine-induced impairment of object recognition” value (C57BL/6N female mice; 0.05 µmol i.c.v.) was “abolished the scopolamine-induced impairment of object recognition”. The IC50 [1] was over 10 µM, the “[35S]GTPγS binding on co-incubation with naltrindole versus antagonist alone” value (δ receptor; 10 µM each) was “did not produce any significant increase” and the “effect on [35S]GTPγS binding stimulated by SNC 80” value (δ receptor; compound 10 µM, SNC 80 10 µM) was “did not cause any significant changes”. For the same molecule, the IC50 [2] was over 0.01 µM, the “function at the µ opioid receptor” value (µ opioid receptor) was “antagonistic function” and the “[35S]GTPγS binding on co-incubation with cyprodime versus antagonist alone” value (µ opioid receptor; 10 µM each, rat brain membranes) was “did not produce any significant increase”. The “effect on [35S]GTPγS binding stimulated by DAMGO” value (µ opioid receptor; compound 10 µM, DAMGO 10 µM, rat brain membranes) was “significantly decreased”, the “[35S]GTPγS binding in the presence of the compound alone” value (µ opioid receptor; rat brain membranes, compared with DAMGO) was “no increase” and the “[35S]GTPγS binding in the presence of the compound alone” value (K receptor) was “no increase”. For the same molecule, the “[35S]GTPγS binding on co-incubation with Nor-BNI versus antagonist alone” value (K receptor) was “did not produce any significant increase”, the “effect on [35S]GTPγS binding stimulated by U69,593” value (K receptor) was “slight, but significant decrease” and the Ki (δ opioid receptors) was 0.316 µM.
For `O=CN1CC[C@]23CC(=O)CC[C@H]2[C@H]1Cc1c(O)ccc(O)c13` [Compound 1, 1,4-dihydroxy-N-formylmorphinan-6-one], the Ki (k opioid receptors) was over 10 µM, the “binding to opioid receptor K (in words)” value (k opioid receptors) was “does not bind” and the Ki (k opioid receptors; read-out: Opioid binding affinities Ki κ receptor, [3H]U69,593, guinea pig brain membranes) was over 10 µM. For the same molecule, the “object recognition (memory)” value (C57BL/6N female mice; 0.01 µmol i.c.v.) was “did not influence memory”, the “object recognition (memory)” value (C57BL/6N female mice; 0.1 µmol i.c.v.) was “significant impairment” and the “effect on scopolamine-induced impairment of object recognition” value (C57BL/6N female mice; 0.01 µmol i.c.v.) was “abolished the scopolamine-induced impairment of object recognition”. For the same molecule, the IC50 [1] was over 10 µM, the IC50 [2] was over 10 µM and the Ki (δ opioid receptors) was over 10 µM. For the same molecule, the “binding to opioid receptor δ (in words)” value (δ opioid receptors) was “does not bind” and the Ki (δ opioid receptors; read-out: Opioid binding affinities Ki δ receptor, [3H][Ile5,6]deltorphin II, rat brain membranes) was over 10 µM.
